One series addresses T1, recombinant human SIRT1 (Homo sapiens, UniProt Q96EB6).
T1 sequence (Q96EB6 1-747): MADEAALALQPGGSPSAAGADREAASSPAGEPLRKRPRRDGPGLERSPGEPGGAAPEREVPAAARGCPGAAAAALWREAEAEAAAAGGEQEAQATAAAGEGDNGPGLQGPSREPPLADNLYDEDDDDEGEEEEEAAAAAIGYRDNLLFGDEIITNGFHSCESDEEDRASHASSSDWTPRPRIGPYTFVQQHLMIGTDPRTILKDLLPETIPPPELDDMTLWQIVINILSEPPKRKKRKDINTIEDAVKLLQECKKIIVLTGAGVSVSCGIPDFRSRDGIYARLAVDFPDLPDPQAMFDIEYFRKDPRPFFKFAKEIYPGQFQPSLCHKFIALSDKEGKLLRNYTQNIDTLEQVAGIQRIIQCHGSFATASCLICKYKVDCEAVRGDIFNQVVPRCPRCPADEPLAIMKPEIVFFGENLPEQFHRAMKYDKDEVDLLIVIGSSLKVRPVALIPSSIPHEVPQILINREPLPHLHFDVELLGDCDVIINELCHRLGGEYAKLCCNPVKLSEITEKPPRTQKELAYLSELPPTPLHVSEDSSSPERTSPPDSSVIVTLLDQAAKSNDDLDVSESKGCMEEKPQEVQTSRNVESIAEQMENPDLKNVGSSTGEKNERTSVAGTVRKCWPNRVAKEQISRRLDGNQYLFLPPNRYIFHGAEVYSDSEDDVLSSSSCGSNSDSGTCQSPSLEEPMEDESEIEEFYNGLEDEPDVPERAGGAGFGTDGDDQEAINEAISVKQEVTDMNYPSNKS
Nature of the series: SIRT1 fluorescent deacetylation assay (p53-382 acetylated peptide). The format is biochemical. To be noted: for SIRT1 stimulating activity (in words): 25 μM NAD+, 25 μM p53-382 acetylated peptide, compounds at 100 μM. From the text: Lines represent non-linear least-squares fits to the Michaelis-Menten equation. […] Lines represent non-linear least-squares fits to the Michaelis-Menten equation. […] Error bars are standard errors of the mean.
To identify compounds that modulate SIRT1 activity, a number of small molecule libraries were screened using a fluorescent deacetylation assay in 96-well plates^26. The substrate used in the assay was a fluorogenic peptide based on the sequence encompassing the p53-K382 acetylation site, a known target of SIRT1 in vivo^20,21,27. […] The small molecule libraries included analogues of nicotinamide, ε-acetyl lysine, NAD^+, nucleotides, nucleotide analogues and purinergic ligands.
His6-tagged recombinant SIRT1 and GST-tagged recombinant Sir2 were prepared as previously described^26. From 0.1 to 1 μg of SIRT1 and 1.5 μg of Sir2 were used per deacetylation assay (in 50 μl total reaction) as previously described^26.
Themed compound libraries (BIOMOL) were used for primary and secondary screening. Most polyphenol compounds were dissolved at 10 mM in dimethylsulfoxide (DMSO) on the day of the assay. For water soluble compounds and negative controls, 1% v/v DMSO was added to the assay. […] Unless otherwise indicated all initial rate measurements were means of three or more replicates, obtained with single incubation times, at which point 5% or less of the substrate initially present had been deacetylated. Calculation of net fluorescence increases included subtraction of a blank value, which in the case of Sir2 was obtained by omitting the enzyme from the reaction and in the case of SIRT1 by adding an inhibitor (200 μM suramin or 1 mM nicotinamide) to the reaction prior to the acetylated substrate. […] All error bars represent the standard error of the mean.

The next series concerns S. cerevisiae. The series can be described thus: Yeast replicative lifespan. The class given is cell-based. To be noted: for % change in yeast replicative lifespan relative to untreated organisms (10 μM): 2% (w/v) glucose YPD, untreated 100%; for Average lifespan: 10 μM compound, 2% glucose medium, wild type untreated 22.9. The protocol:
Average lifespan for wild type, 22.9 generations, quercetin, 23.4; piceatannol. […]
All yeast strains were grown at 30° C. in complete yeast extract/bactopeptone, 2.0% (w/v) glucose (YPD) medium except where stated otherwise. Calorie restriction was induced in 0.5% glucose. Synthetic complete (SC) medium consisted of 1.67% yeast nitrogen base, 2% glucose, 40 mg/litre each of auxotrophic markers. SIR2 was integrated in extra copy and disrupted as described^5. Other strains are described elsewhere^26. For cellular deacetylation assays, HeLa S3 cells were used. U20S osteosarcoma and human embryonic kidney (HEK 293) cells were cultured adherently in Dulbecco's Modified Eagle's Medium (DMEM) containing 10% fetal calf serum (FCS) with 1.0% glutamine and 1.0% penecillin/streptomycin. HEK 293 overexpressing dominant negative SIRT1 H363Y was a gift of R. Frye (U. Pittsburgh).
Lifespan measurements were performed using PSY316AT MATα as previously described^35. All compounds for lifespan analyses were dissolved in 95% ethanol and plates were dried and used within 24 hours. Prior to lifespan analysis, cells were pre-incubated on their respective media for at least 15 hours. Following transfer to a new plate, cells were equilibrated on the medium for a minimum of 4 hours prior to micro-manipulating them. At least 30 cells were examined per experiment and each experiment was performed at least twice. Statistical significance of lifespan differences was determined using the Wilcoxon rank sum test. Differences are stated to be significant when the confidence is higher than 95%.

The test system of the next series is Human 293. Nature of the series: Survival of 293 cells. The conditions noted are these: 50 micromolar.
In the next series the test system is HDAC. To be noted: in vitro or in vivo, literature; cited from earlier work.
The next series relates to D. melanogaster. Nature of the series: D. melanogaster lifespan. The format is in vivo. The procedure: Females (a) and males (b) with loss-of-function genotype dSir2^4.5/dSir2^5.26. Females (c) and males (d) with strong hypomorphic genotype dSir2^17/dSir2^KG00871.
Survival assays were conducted independently with adult D. melanogaster in two laboratories. In the first laboratory, all trials used an yw marked wild-type strain. Larvae were reared on standard cornmeal-sugar-yeast (CSY) agar diet (cornmeal 5%, sucrose 10.5%, SAF yeast 2%, and agar 0.7%). Newly eclosed adults were placed in 1 L demography cages with approximately 75 males and 75 females. Three to four replicate 1 L demography cages were used for each treatment group in each trial. Every two days, dead flies were removed and scored, and food vials were replenished. Food vials contained cornmeal-sugar-yeast diet with SAF yeast as either 2% or 3% by weight. Test compounds in 100 μl of EtOH (or blank EtOH in controls) were mixed into melted aliquots of the adult food media to make a final concentration of 0, 10 or 100 μM. Fresh stock solutions and adult media were prepared weekly. In the second laboratory, lifespan trials were conducted with the wild type strain Canton-S, dSir2^4.5 and dSir2^5.26 (S. Smolik, University of Oregon), dSir2^17 (S. Astrom, Stockholm University, Sweden), and dSir2^KG00871 (Drosophila Stock Center, Bloomington, Ind.). Larvae for all tests were reared on standard cornmeal-sugar-yeast diet. Newly eclosed adults were incubated in plastic shell vials containing 5 ml of 15% sugar-yeast diet (15% SY) or 5% sugar-yeast (5% SY) diet (15% SY: 15% yeast, 15% sucrose, 2% agar; 5% SY: 5% yeast, 5% sucrose, 2% agar as per Ref. ^20). In all trials, ˜20 males with ˜20 females were placed into each of 10 vials/treatment group. Every two days, flies were passed into new vials and dead flies were counted. […] Final compound concentrations were 0, 10, 100 or 200 μM. Fresh stock solution and adult media was prepared weekly.

We go through 16 molecules from patent US20060276393A1, “Novel compositions for preventing and treating neurodegenerative and blood coagulation disorders” (Sirtris Pharmaceuticals, Inc., priority 2005, published 2006).

Several values for one entry are separate records, joined by “and”; a condition that tells them apart may be missing. Equal values may be shown once. Entries after “also recorded” stand apart in the source; their conditions may differ.

Source text for Human 293: The number of live cells each time point was counted using a Coulter counter.

For the molecule 5,7,4′-Trihydroxyflavanone [genistein], the “SIRT1 stimulating activity (in words)” value on recombinant human SIRT1 was “absence of activity”.

On to `Oc1cc(O)cc(/C=C/c2ccc(F)cc2)c1` [BML-212, 3,5-Dihydroxy-4′-fluoro-trans-stilbene], for which the “% change in yeast replicative lifespan relative to untreated organisms (10 μM)” value with S. cerevisiae (10 μM) is recorded as 98%.

Turning to `Oc1cc(O)cc(/C=C/c2ccc(Cl)cc2)c1` [BML-217, 3,5-Dihydroxy-4′-chloro-trans-stilbene], the “% change in yeast replicative lifespan relative to untreated organisms (10 μM)” value in the series with S. cerevisiae (10 μM) was 90%. The “SIRT1 stimulating activity (in words)” value at recombinant human SIRT1 is on record as “did the least to decrease activity; also recorded: did not significantly diminish the SIRT1 activating effect”.

As to `O=C(Nc1cc(O)cc(O)c1)c1ccccc1` [BML-219, N-(3,5-Dihydroxyphenyl)benzamide], at recombinant human SIRT1, the “SIRT1 stimulating activity (in words)” value is “abolished activity”.

With `Oc1cc(O)cc(/C=C/C2CCCCC2)c1` [BML-224], the “SIRT1 stimulating activity (in words)” value at recombinant human SIRT1 is “nearly as detrimental to SIRT1 stimulating activity”.

In the case of `CCc1ccc(/C=C/c2cc(O)cc(O)c2)cc1` [BML-225], the results for the “Survival of 293 cells” value with Human 293 (0 h), in the series on Human 293 (48 h) and in the series on Human 293 (96 h) were 100%, 5% and 8%, respectively.

For the molecule `Cc1ccc(/C=C/c2cc(O)cc(O)c2)cc1` [BML-228], the “Survival of 293 cells” value is 100% in the series on Human 293 (0 h), 46% in the series with Human 293 (48 h) and 32% in the series on Human 293 (96 h). In addition, the “SIRT1 stimulating activity (in words)” value on recombinant human SIRT1 is listed as “did the least to decrease activity”.

In the case of `CSc1ccc(/C=C/c2cc(O)cc(O)c2)cc1` [BML-230], the “Survival of 293 cells” value with Human 293 (0 h) was determined as 100%; with Human 293 (48 h), 55%; with Human 293 (96 h) it was 57%. For the same molecule, in the series on Human 293 (96 hours), the “toxicity on 293 cells (in words)” value was “least toxic on 293 cells”. Besides, on recombinant human SIRT1 (R at 500 μM), the “v1/v2, ratio of BML-230-stimulated to resveratrol-stimulated SIRT1 rate” value is no more than 1.4. Moreover, the “BML-230-stimulated SIRT1 activity compared with resveratrol” value at recombinant human SIRT1 (dose response, 25 μM each NAD+ and p53-382 peptide, 20 min) was “exceeds that stimulated by resveratrol at all concentrations tested”. In addition, the “dissociation constant of SIRT1/activator complex (comparison)” value on recombinant human SIRT1 (inferred from two state model, FIG. 9b) was “lower dissociation constant than SIRT1/resveratrol”.

Regarding `O=C(/C=C/c1cccc(C(=O)NO)c1)NO` [CBHA, m-carboxy-cinnamic acid bishydroxamic acid], the “HDAC inhibition (in words)” value with HDAC is on record as “micromolar concentration or lower”.

For `C/C=C1\NC(=O)[C@H]2CSSCC/C=C/[C@H](CC(=O)N[C@H](C(C)C)C(=O)N2)OC(=O)[C@H](C(C)C)NC1=O` [Depsipeptide], in the series on HDAC, the “HDAC inhibition (in words)” value is on record as “micromolar concentrations”.

As to `NC(=O)c1cccnc1` [Nicotinamide, nicotinamide], the “SIRT1 Vmax decrease” value at recombinant human SIRT1 (50 μM nicotinamide, absence of resveratrol, NAD+ or acetylated peptide varied) was 30% and 36%.

Consider `O=c1c(O)c(-c2ccc(O)c(O)c2)oc2cc(O)ccc12` [fisetin, 3,7,3′,4′-Tetrahyddroxyflavone], for which, in the series with S. cerevisiae (10 μM), the “increase of average lifespan” value amounted to 55% and the “maximum lifespan (in words)” value is recorded as “significantly increased maximum lifespan”. The Average lifespan in the series with S. cerevisiae came out at 30.0 generations. For the same molecule, the “longevity on restricted diet” value in the series on D. melanogaster (restricted diet) is recorded as “neither resveratrol nor fisetin further increased longevity”. In the series on D. melanogaster (wild type Canton-S and yw, males and females, normal diet), the “lifespan extended (maximum)” value is listed as “up to 23%”.

For `Oc1cc(O)cc(/C=C/c2ccc(O)c(O)c2)c1` [piceatannol, 3,5,3′,4′-Tetrahydroxy-trans-stilbene], in the series with S. cerevisiae (10 μM), the “effect on lifespan (in words)” value is on record as “no significant effect on lifespan”. Besides, the Average lifespan in the series on S. cerevisiae worked out at 24.0 generations. Further, on recombinant human SIRT1 (initial library screen, fluorogenic p53-K382 peptide (Table 1)), the “stimulated SIRT1 activity” value is recorded as “eight”.

In the case of `O=c1c(O)c(-c2ccc(O)c(O)c2)oc2cc(O)cc(O)c12` [quercetin, 3,5,7,3′,4′-Pentahydroxyflavone], the “effect on lifespan (in words)” value in the series with S. cerevisiae (10 μM) was “no significant effect on lifespan”. The Average lifespan with S. cerevisiae is on record as 23.4 generations.

Turning to depudecin, the “HDAC inhibition (in words)” value with HDAC is recorded as “micromolar concentrations”.

In the case of trichostatin A [TSA], the “HDAC inhibition (in words)” value in the series on HDAC was “potent inhibitor of mammalian HDAC”.
